Patent publication US20240059671A1, “TYROSINE KINASE 2 (TYK2) DEGRADATION COMPOUNDS AND METHODS OF USE” (CULLGEN (SHANGHAI), INC., priority 2020, published 2024)

Target: TYK2 (Homo sapiens, UniProt P29597)
Assay: TYK2 protein degradation in MOLT-4 cells by immunoblotting
Format: cell-based
Set-up: endogenous in cells; host or cells: MOLT-4
Details: MOLT-4 cells, 24 hours
Procedure: MOLT-4 cells were treated with compounds at 0.5 and 5 μM concentrations for 24 hours.
MOLT-4 cells were treated with CPD-038, CPD-039, and CPD-040 at 0.04, 0.2, 1, and 5 μM concentrations for 24 hours.
MOLT-4 or NOMO-1 cells were cultured at 37° C. with 5% CO2 in RPMI 1640 Medium supplemented with 10% fetal bovine serum. Cells were authenticated using the short tandem repeat (STR) assays. Mycoplasma test results were negative.
Cultured cells were washed with cold PBS once and lysed in cold RIPA buffer supplemented with protease inhibitors and phosphatase inhibitors (Beyotime Biotechnology). The solutions were then incubated at 4° C. for 30 minutes with gentle agitation to fully lyse cells. Cell lysates were centrifuged at 13,000 rpm for 10 minutes at 4° C. and pellets were discarded. Total protein concentrations in the lysates were determined by BCA assays (Beyotime Biotechnology). Cell lysates were mixed with Laemmli loading buffer to 1× and heated at 99° C. for 5 min. Proteins were resolved on SDS-PAGE and visualized by chemiluminescence. Images were taken by a ChemiDoc MP Imaging system (Bio-Rad). Protein bands were quantitated using the accompanied software provided by Bio-Rad.
The percentage of TYK2 protein degradation of each compound at 0.5 and 5 μM determined in MOLT-4 cells as described in Methods.

Sequence of TYK2 (P29597 whole entry): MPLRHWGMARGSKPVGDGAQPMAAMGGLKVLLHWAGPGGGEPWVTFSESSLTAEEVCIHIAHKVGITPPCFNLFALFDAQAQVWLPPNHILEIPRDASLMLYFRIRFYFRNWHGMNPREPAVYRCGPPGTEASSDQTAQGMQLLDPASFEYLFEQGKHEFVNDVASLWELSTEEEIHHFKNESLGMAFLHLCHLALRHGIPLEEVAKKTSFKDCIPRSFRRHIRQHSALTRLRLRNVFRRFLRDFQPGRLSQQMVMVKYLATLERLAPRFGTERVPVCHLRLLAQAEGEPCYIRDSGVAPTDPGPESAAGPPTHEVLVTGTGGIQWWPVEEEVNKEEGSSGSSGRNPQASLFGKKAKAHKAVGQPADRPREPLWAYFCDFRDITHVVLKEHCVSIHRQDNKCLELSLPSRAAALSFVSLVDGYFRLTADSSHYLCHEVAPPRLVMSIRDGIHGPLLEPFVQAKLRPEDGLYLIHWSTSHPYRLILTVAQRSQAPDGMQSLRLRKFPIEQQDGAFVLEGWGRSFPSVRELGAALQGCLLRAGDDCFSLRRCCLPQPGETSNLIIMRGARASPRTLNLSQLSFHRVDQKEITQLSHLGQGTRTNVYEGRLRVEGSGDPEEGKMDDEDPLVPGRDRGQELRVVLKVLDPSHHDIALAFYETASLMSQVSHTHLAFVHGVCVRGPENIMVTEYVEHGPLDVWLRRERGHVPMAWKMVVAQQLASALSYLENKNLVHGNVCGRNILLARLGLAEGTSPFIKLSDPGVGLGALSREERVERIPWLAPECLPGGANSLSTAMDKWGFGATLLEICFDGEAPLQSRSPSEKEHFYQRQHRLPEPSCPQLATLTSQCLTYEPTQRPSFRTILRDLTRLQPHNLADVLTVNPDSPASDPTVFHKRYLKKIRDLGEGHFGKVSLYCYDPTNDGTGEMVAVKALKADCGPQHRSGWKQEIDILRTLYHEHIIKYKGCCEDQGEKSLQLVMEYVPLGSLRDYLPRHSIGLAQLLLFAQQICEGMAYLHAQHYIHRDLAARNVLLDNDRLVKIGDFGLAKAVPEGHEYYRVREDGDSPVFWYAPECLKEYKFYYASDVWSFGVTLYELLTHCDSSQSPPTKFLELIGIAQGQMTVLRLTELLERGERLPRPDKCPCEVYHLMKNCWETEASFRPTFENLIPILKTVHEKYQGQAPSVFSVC

Structure (SMILES) | TYK2 Degradation (0.5 μM) [%] | TYK2 Degradation (5 μM) [%] | TYK2 Degradation (MOLT-4, 0.5 μM) | TYK2 Degradation (MOLT-4, 5 μM)
CNC(=O)c1nnc(NC(=O)CNC(=O)CCCCNc2cccc3c2C(=O)N(C2CCC(=O)NC2=O)C3=O)cc1Nc1cccc(-c2ncn(C)n2)c1OC (stereo not shown) [CPD-045, 6-(2-(5-((2-(2,6-Dioxopiperidin-3-yl)-1,3-dioxoisoindolin-4-yl)amino)pentanamido)acetamido)-4-((2-methoxy-3-(1-methyl-1H-1,2,4-triazol-3-yl)phenyl)amino)-N-methylpyridazine-3-carboxamide] | 40 | ≤20 |  | 
CNC(=O)c1nnc(NC(=O)C2CC2)cc1Nc1cccc(-c2ncn(CCNC(=O)CCOCCOCCNc3cccc4c3C(=O)N(C3CCC(=O)NC3=O)C4=O)n2)c1OC (stereo not shown) [CPD-009, 6-(Cyclopropanecarboxamido)-4-((3-(1-(2-(3-(2-(2-((2-(2,6-dioxopiperidin-3-yl)-1,3-dioxoisoindolin-4-yl)amino)ethoxy)ethoxy)propanamido)ethyl)-1H-1,2,4-triazol-3-yl)-2-methoxyphenyl)amino)-N-methylpyridazine-3-carboxamide] | ≤20 |  |  | 
CNC(=O)c1nnc(NC(=O)CNC(=O)CCCCCNC(=O)C[C@H](NC(=O)[C@@H]2C[C@@H](O)CN2C(=O)[C@@H](NC(=O)C2(F)CC2)C(C)(C)C)c2ccc(-c3scnc3C)cc2)cc1Nc1cccc(-c2ncn(C)n2)c1OC [CPD-090, 6-(2-(6-((S)-3-((2S,4R)-1-((S)-2-(1-Fluorocyclopropane-1-carboxamido)-3,3-dimethylbutanoyl)-4-hydroxypyrrolidine-2-carboxamido)-3-(4-(4-methylthiazol-5-yl)phenyl)propanamido)hexanamido)acetamido)-4-((2-methoxy-3-(1-methyl-1H-1,2,4-triazol-3-yl)phenyl)amino)-N-methylpyridazine-3-carboxamide] |  |  | C (C: ≤20% TYK2 degradation) | C (C: ≤20% TYK2 degradation)
CNC(=O)c1nnc(NC(=O)CNC(=O)CCCCCCC(=O)N[C@H](C(=O)N2C[C@H](O)C[C@H]2C(=O)N[C@@H](C)c2ccc(-c3scnc3C)cc2)C(C)(C)C)cc1Nc1cccc(-c2ncn(C)n2)c1OC [CPD-083, N^1-((S)-1-((2S,4R)-4-Hydroxy-2-(((S)-1-(4-(4-methylthiazol-5-yl)phenyl)ethyl)carbamoyl)pyrrolidin-1-yl)-3,3-dimethyl-1-oxobutan-2-yl)-N^8-(2-((5-((2-methoxy-3-(1-methyl-1H-1,2,4-triazol-3-yl)phenyl)amino)-6-(methylcarbamoyl)pyridazin-3-yl)amino)-2-oxoethyl)octanediamide] |  |  | B (B: <60% TYK2 degradation, and >20% TYK2 degradation) | A (A: ≥60% TYK2 degradation)
CNC(=O)c1nnc(NC(=O)C2CC2)cc1Nc1cccc(-c2ncn(CCNC(=O)CCCCCC(=O)N[C@H](C(=O)N3C[C@H](O)C[C@H]3C(=O)NCc3ccc(-c4scnc4C)cc3)C(C)(C)C)n2)c1OC [CPD-078, N^1-(2-(3-(3-((6-(Cyclopropanecarboxamido)-3-(methylcarbamoyl)pyridazin-4-yl)amino)-2-methoxyphenyl)-1H-1,2,4-triazol-1-yl)ethyl)-N^7-((S)-1-((2S,4R)-4-hydroxy-2-((4-(4-methylthiazol-5-yl)benzyl)carbamoyl)pyrrolidin-1-yl)-3,3-dimethyl-1-oxobutan-2-yl)heptanediamide] | ≤20 | ≤20 |  | 
CNC(=O)c1nnc(NC(=O)CNC(=O)CCCCCC(=O)N[C@H](C(=O)N2C[C@H](O)C[C@H]2C(=O)NCc2ccc(-c3scnc3C)cc2)C(C)(C)C)cc1Nc1cccc(-c2ncn(C)n2)c1OC [CPD-037, N^1—((S)-1-((2S,4R)-4-Hydroxy-2-((4-(4-methylthiazol-5-yl)benzyl)carbamoyl)pyrrolidin-1-yl)-3,3-dimethyl-1-oxobutan-2-yl)-N^7-(2-((5-((2-methoxy-3-(1-methyl-1H-1,2,4-triazol-3-yl)phenyl)amino)-6-(methylcarbamoyl)pyridazin-3-yl)amino)-2-oxoethyl)heptanediamide] | ≤20 | 30 |  | 
CNC(=O)c1nnc(NC(=O)C2CC2)cc1Nc1cccc(-c2ncn(CCNC(=O)CCOCCOCCC(=O)N[C@H](C(=O)N3C[C@H](O)C[C@H]3C(=O)NCc3ccc(-c4scnc4C)cc3)C(C)(C)C)n2)c1OC [CPD-069, 6-(Cyclopropanecarboxamido)-4-((3-(1-((S)-15-((2S,4R)-4-hydroxy-2-((4-(4-methylthiazol-5-yl)benzyl)carbamoyl)pyrrolidine-1-carbonyl)-16,16-dimethyl-4,13-dioxo-7,10-dioxa-3,14-diazaheptadecyl)-1H-1,2,4-triazol-3-yl)-2-methoxyphenyl)amino)-N-methylpyridazine-3-carboxamide] | ≤20 | ≤20 |  | 
CNC(=O)c1nnc(NC(=O)C2CC2)cc1Nc1cccc(-c2ncn(CCNC(=O)CCOCCOCCOCCOCCNc3cccc4c3C(=O)N(C3CCC(=O)NC3=O)C4=O)n2)c1OC (stereo not shown) [CPD-011, 6-(Cyclopropanecarboxamido)-4-((3-(1-(1-((2-(2,6-dioxopiperidin-3-yl)-1,3-dioxoisoindolin-4-yl)amino)-15-oxo-3,6,9,12-tetraoxa-16-azaoctadecan-18-yl)-1H-1,2,4-triazol-3-yl)-2-methoxyphenyl)amino)-N-methylpyridazine-3-carboxamide] | ≤20 |  |  | 
CNC(=O)c1nnc(NC(=O)C2CC2)cc1Nc1cccc(-c2ncn(CCNC(=O)CCOCCOCCOCCOCCC(=O)N[C@H](C(=O)N3C[C@H](O)C[C@H]3C(=O)NCc3ccc(-c4scnc4C)cc3)C(C)(C)C)n2)c1OC [CPD-072, N^1-(2-(3-(3-((6-(Cyclopropanecarboxamido)-3-(methylcarbamoyl)pyridazin-4-yl)amino)-2-methoxyphenyl)-1H-1,2,4-triazol-1-yl)ethyl)-N^16-((S)-1-((2S,4R)-4-hydroxy-2-((4-(4-methylthiazol-5-yl)benzyl)carbamoyl)pyrrolidin-1-yl)-3,3-dimethyl-1-oxobutan-2-yl)-4,7,10,13-tetraoxahexadecanediamide] | ≤20 | ≤20 |  | 
CNC(=O)c1nnc(NC(=O)C2CC2)cc1Nc1cccc(-c2ncn(CCNC(=O)CCCNc3ccc4c(c3)C(=O)N(C3CCC(=O)NC3=O)C4=O)n2)c1OC (stereo not shown) [CPD-015, 6-(Cyclopropanecarboxamido)-4-((3-(1-(2-(4-((2-(2,6-dioxopiperidin-3-yl)-1,3-dioxoisoindolin-5-yl)amino)butanamido)ethyl)-1H-1,2,4-triazol-3-yl)-2-methoxyphenyl)amino)-N-methylpyridazine-3-carboxamide] | ≤20 |  |  | 
CNC(=O)c1nnc(NC(=O)CNC(=O)CNc2ccc3c(c2)C(=O)N(C2CCC(=O)NC2=O)C3=O)cc1Nc1cccc(-c2ncn(C)n2)c1OC (stereo not shown) [CPD-054, 6-(2-(2-((2-(2,6-Dioxopiperidin-3-yl)-1,3-dioxoisoindolin-5-yl)amino)acetamido)acetamido)-4-((2-methoxy-3-(1-methyl-1H-1,2,4-triazol-3-yl)phenyl)amino)-N-methylpyridazine-3-carboxamide] | ≤20 | ≤20 |  | 
CNC(=O)c1nnc(NC(=O)C2CC2)cc1Nc1cccc(-c2ncn(CCNC(=O)COCC(=O)N[C@H](C(=O)N3C[C@H](O)C[C@H]3C(=O)NCc3ccc(-c4scnc4C)cc3)C(C)(C)C)n2)c1OC [CPD-066, 6-(Cyclopropanecarboxamido)-4-((3-(1-(2-(2-(2-(((S)-1-((2S,4R)-4-hydroxy-2-((4-(4-methylthiazol-5-yl)benzyl)carbamoyl)pyrrolidin-1-yl)-3,3-dimethyl-1-oxobutan-2-yl)amino)-2-oxoethoxy)acetamido)ethyl)-1H-1,2,4-triazol-3-yl)-2-methoxyphenyl)amino)-N-methylpyridazine-3-carboxamide] | ≤20 | ≤20 |  | 
CNC(=O)c1nnc(NC(=O)CNC(=O)CCOCCOCCOCCNc2ccc3c(c2)C(=O)N(C2CCC(=O)NC2=O)C3=O)cc1Nc1cccc(-c2ncn(C)n2)c1OC (stereo not shown) [CPD-063, 6-(1-((2-(2,6-Dioxopiperidin-3-yl)-1,3-dioxoisoindolin-5-yl)amino)-12-oxo-3,6,9-trioxa-13-azapentadecan-15-amido)-4-((2-methoxy-3-(1-methyl-1H-1,2,4-triazol-3-yl)phenyl)amino)-N-methylpyridazine-3-carboxamide] | ≤20 | 30 |  | 
CNC(=O)c1nnc(NC(=O)CNC(=O)CCCCCCNc2ccc3c(c2)C(=O)N(C2CCC(=O)NC2=O)C3=O)cc1Nc1cccc(-c2ncn(C)n2)c1OC (stereo not shown) [CPD-059, 6-(2-(7-((2-(2,6-Dioxopiperidin-3-yl)-1,3-dioxoisoindolin-5-yl)amino)heptanamido)acetamido)-4-((2-methoxy-3-(1-methyl-1H-1,2,4-triazol-3-yl)phenyl)amino)-N-methylpyridazine-3-carboxamide] | ≤20 | ≤20 |  | 
